Tests used:
[1] = test system: Mycobacterium tuberculosis Erdman (autoluminescent); assay: FIC90 (Loewe) at 90% inhibition (log2); higher = more antagonistic
Procedure: (§1)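 DiaMOND equipotent two-drug combination dose responses against autoluminescent M. tuberculosis Erdman in 8 in vitro models. Read-out is OD600, or luminescence for the intracellular and dormancy models, normalised to untreated wells. Hill-fit Einf, AUC25 and GRinf are potency metrics; FIC50 and FIC90 are Loewe-additivity fractional inhibitory concentrations, given as log2 (negative = synergy). Replicates are averaged.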

[2] = test system: Mycobacterium tuberculosis Erdman (autoluminescent); assay: FIC50 (Loewe) at 50% inhibition (log2); higher = more antagonistic
Procedure: as §1

[3] = test system: Mycobacterium tuberculosis Erdman (autoluminescent); assay: Einf, fitted maximum growth inhibition of combination (fraction); higher = stronger maximal inhibition
Procedure: as §1

[4] = test system: Mycobacterium tuberculosis Erdman (autoluminescent); assay: AUC25, normalised area under dose response up to IC25 (fraction (0-1)); higher = more potent at low dose
Procedure: as §1

[5] = test system: Mycobacterium tuberculosis Erdman (autoluminescent); assay: GRinf, maximum normalised growth rate inhibition (unitless (-1 to 1)); higher = less effect (negative = killing)
Procedure: as §1

NNC(=O)c1ccncc1 [isoniazid] + O=[N+]([O-])c1cn2c(n1)OC[C@@H](OCc1ccc(OC(F)(F)F)cc1)C2 [pretomanid]
Details | AUC25, [4] | Einf, [3] | FIC50, [2] | FIC90, [1] | GRinf, [5]
in vitro model: acidic pH 5.7, time point: constant (~7 days, model-specific) | 0.13 | 0.866 | 0.312 | – | -0.747
in vitro model: acidic pH 5.7, time point: terminal (~4-5 doublings, model-specific) | 0.0878 | 0.99 | 0.274 | 0.597 | -0.432
in vitro model: intracellular J774, time point: constant = terminal | – | 1 | – | 0.496 | -0.631

Details | AUC25, [4] | Einf, [3] | FIC50, [2] | FIC90, [1] | GRinf, [5]
in vitro model: butyrate, time point: constant (~7 days, model-specific) | 0.0655 | 0.945 | 0.776 | 0.672 | -0.0657
in vitro model: butyrate, time point: terminal (~4-5 doublings, model-specific) | 0.0383 | 0.973 | 0.602 | 0.403 | -0.0769
in vitro model: cholesterol 0.05 mM, time point: constant (~7 days, model-specific) | 0.122 | 0.755 | 0.145 | – | -0.201
in vitro model: cholesterol 0.05 mM, time point: terminal (~4-5 doublings, model-specific) | 0.0915 | 0.922 | 5.18 | 0.199 | -0.242
in vitro model: cholesterol-high 0.2 mM, time point: constant (~7 days, model-specific) | 0.0893 | 0.875 | 0.379 | – | -0.127
in vitro model: cholesterol-high 0.2 mM, time point: terminal (~4-5 doublings, model-specific) | 0.0482 | 0.982 | 0.467 | 0.413 | -0.542
in vitro model: dormancy (butyrate + nitrate, low O2), time point: constant (~7 days, model-specific) | 0.0671 | 0.909 | 0.185 | 0.145 | 0.115
in vitro model: dormancy (butyrate + nitrate, low O2), time point: terminal (~4-5 doublings, model-specific) | 0.0588 | 0.983 | 0.103 | 0.303 | -0.198
in vitro model: standard 7H9 glycerol, time point: constant = terminal | 0.0602 | 0.928 | 0.303 | 0.248 | 0.0614
in vitro model: valerate, time point: constant (~7 days, model-specific) | 0.102 | 0.884 | 0.537 | 2.18 | -0.208
in vitro model: valerate, time point: terminal (~4-5 doublings, model-specific) | 0.0772 | 0.938 | 0.495 | 0.477 | 0.00535

CC(=O)NC[C@H]1CN(c2ccc(N3CCOCC3)c(F)c2)C(=O)O1 [linezolid] + CO[C@H]1/C=C/O[C@@]2(C)Oc3c(C)c(O)c4c(O)c(c(/C=N/N5CCN(C6CCCC6)CC5)c(O)c4c3C2=O)NC(=O)/C(C)=C\C=C\[C@H](C)[C@H](O)[C@@H](C)[C@@H](O)[C@@H](C)[C@H](OC(C)=O)[C@@H]1C [rifapentine]
Details | AUC25, [4] | Einf, [3] | FIC50, [2] | FIC90, [1] | GRinf, [5]
in vitro model: acidic pH 5.7, time point: constant (~7 days, model-specific) | 0.0817 | 0.89 | 0.435 | – | -0.248
in vitro model: acidic pH 5.7, time point: terminal (~4-5 doublings, model-specific) | 0.0632 | 0.979 | 0.277 | 0.184 | -0.205
in vitro model: intracellular J774, time point: constant = terminal | – | 0.948 | – | -0.637 | -0.209

Details | AUC25, [4] | Einf, [3] | FIC50, [2] | FIC90, [1] | GRinf, [5]
in vitro model: butyrate, time point: constant (~7 days, model-specific) | 0.0729 | 0.876 | 0.227 | -0.305 | 0.113
in vitro model: butyrate, time point: terminal (~4-5 doublings, model-specific) | 0.0445 | 0.934 | 0.0572 | -0.553 | 0.0794
in vitro model: cholesterol 0.05 mM, time point: constant (~7 days, model-specific) | 0.156 | 0.718 | -0.52 | – | -0.0866
in vitro model: cholesterol 0.05 mM, time point: terminal (~4-5 doublings, model-specific) | 0.107 | 0.929 | -0.0542 | 0.274 | -0.162
in vitro model: cholesterol-high 0.2 mM, time point: constant (~7 days, model-specific) | 0.109 | 0.966 | -0.254 | -0.688 | -0.499
in vitro model: cholesterol-high 0.2 mM, time point: terminal (~4-5 doublings, model-specific) | 0.103 | 1 | 0.0666 | 0.0759 | -0.762
in vitro model: dormancy (butyrate + nitrate, low O2), time point: constant (~7 days, model-specific) | 0.0497 | 0.908 | 0.552 | 0.666 | 0.107
in vitro model: dormancy (butyrate + nitrate, low O2), time point: terminal (~4-5 doublings, model-specific) | 0.0324 | 0.979 | 0.585 | 0.484 | -0.13
in vitro model: standard 7H9 glycerol, time point: constant = terminal | 0.0541 | 0.927 | 0.266 | 0.154 | -0.0203
in vitro model: valerate, time point: constant (~7 days, model-specific) | 0.064 | 0.849 | 0.063 | – | 0.119
in vitro model: valerate, time point: terminal (~4-5 doublings, model-specific) | 0.0448 | 0.935 | 0.198 | 0.078 | 0.0691

CC(=O)NC[C@H]1CN(c2ccc(N3CCOCC3)c(F)c2)C(=O)O1 [linezolid] + CO[C@H]1/C=C/O[C@@]2(C)Oc3c(C)c(O)c4c(O)c(c(/C=N/N5CCN(C)CC5)c(O)c4c3C2=O)NC(=O)/C(C)=C\C=C\[C@H](C)[C@H](O)[C@@H](C)[C@@H](O)[C@@H](C)[C@H](OC(C)=O)[C@@H]1C [rifampicin]
Details | AUC25, [4] | Einf, [3] | FIC50, [2] | FIC90, [1] | GRinf, [5]
in vitro model: acidic pH 5.7, time point: constant (~7 days, model-specific) | 0.0878 | 0.902 | 0.204 | – | -0.289
in vitro model: acidic pH 5.7, time point: terminal (~4-5 doublings, model-specific) | 0.0656 | 0.983 | 0.31 | 0.0747 | -0.211
in vitro model: intracellular J774, time point: constant = terminal | – | 0.955 | – | -0.706 | -0.24

Details | AUC25, [4] | Einf, [3] | FIC50, [2] | FIC90, [1] | GRinf, [5]
in vitro model: butyrate, time point: constant (~7 days, model-specific) | 0.078 | 0.87 | 0.117 | – | 0.146
in vitro model: butyrate, time point: terminal (~4-5 doublings, model-specific) | 0.0601 | 0.938 | -0.0786 | -0.707 | 0.11
in vitro model: cholesterol 0.05 mM, time point: constant (~7 days, model-specific) | 0.154 | 0.725 | -0.622 | – | -0.00382
in vitro model: cholesterol 0.05 mM, time point: terminal (~4-5 doublings, model-specific) | 0.13 | 0.935 | -0.194 | -0.403 | -0.175
in vitro model: cholesterol-high 0.2 mM, time point: constant (~7 days, model-specific) | 0.101 | 0.997 | -0.0412 | -0.846 | -0.295
in vitro model: cholesterol-high 0.2 mM, time point: terminal (~4-5 doublings, model-specific) | 0.0937 | 1 | 0.555 | -0.0135 | -0.687
in vitro model: dormancy (butyrate + nitrate, low O2), time point: constant (~7 days, model-specific) | 0.0704 | 0.905 | 0.505 | 0.314 | 0.177
in vitro model: dormancy (butyrate + nitrate, low O2), time point: terminal (~4-5 doublings, model-specific) | 0.0353 | 0.969 | 0.176 | 0.0537 | -0.0276
in vitro model: standard 7H9 glycerol, time point: constant = terminal | 0.0527 | 0.885 | 0.284 | – | 0.156
in vitro model: valerate, time point: constant (~7 days, model-specific) | 0.0582 | 0.865 | 0.191 | – | 0.0036
in vitro model: valerate, time point: terminal (~4-5 doublings, model-specific) | 0.0309 | 0.945 | 0.171 | -0.411 | 0.00264

— the supplement of paper PMC8617591
